Consider six compounds from patent publication US20050282743A1, “Molecular interactions in cells” (Arbor Vita Corporation, priority 2001, published 2005).

Ends that are not written are not given here. Peptide text beside a SMILES is read from it. * marks the point of attachment. Biotin = O=C1N[C@H]2[C@H](CS[C@H]2CCCCC(=O)*)N1

Holding throughout (assay): G' assay (10 uM PL peptide), results of TABLE 7 and TABLE 12
Common to all, as to assay type: binding

In experiment [1] the target is T1, PDZ protein (GST-PDZ fusion) (Homo sapiens, UniProt Q96JH8).
T1 construct: made in house; host or cells: E. coli (DH5alpha, BL21 or JM109)
T1 sequence (Q96JH8 1-1075): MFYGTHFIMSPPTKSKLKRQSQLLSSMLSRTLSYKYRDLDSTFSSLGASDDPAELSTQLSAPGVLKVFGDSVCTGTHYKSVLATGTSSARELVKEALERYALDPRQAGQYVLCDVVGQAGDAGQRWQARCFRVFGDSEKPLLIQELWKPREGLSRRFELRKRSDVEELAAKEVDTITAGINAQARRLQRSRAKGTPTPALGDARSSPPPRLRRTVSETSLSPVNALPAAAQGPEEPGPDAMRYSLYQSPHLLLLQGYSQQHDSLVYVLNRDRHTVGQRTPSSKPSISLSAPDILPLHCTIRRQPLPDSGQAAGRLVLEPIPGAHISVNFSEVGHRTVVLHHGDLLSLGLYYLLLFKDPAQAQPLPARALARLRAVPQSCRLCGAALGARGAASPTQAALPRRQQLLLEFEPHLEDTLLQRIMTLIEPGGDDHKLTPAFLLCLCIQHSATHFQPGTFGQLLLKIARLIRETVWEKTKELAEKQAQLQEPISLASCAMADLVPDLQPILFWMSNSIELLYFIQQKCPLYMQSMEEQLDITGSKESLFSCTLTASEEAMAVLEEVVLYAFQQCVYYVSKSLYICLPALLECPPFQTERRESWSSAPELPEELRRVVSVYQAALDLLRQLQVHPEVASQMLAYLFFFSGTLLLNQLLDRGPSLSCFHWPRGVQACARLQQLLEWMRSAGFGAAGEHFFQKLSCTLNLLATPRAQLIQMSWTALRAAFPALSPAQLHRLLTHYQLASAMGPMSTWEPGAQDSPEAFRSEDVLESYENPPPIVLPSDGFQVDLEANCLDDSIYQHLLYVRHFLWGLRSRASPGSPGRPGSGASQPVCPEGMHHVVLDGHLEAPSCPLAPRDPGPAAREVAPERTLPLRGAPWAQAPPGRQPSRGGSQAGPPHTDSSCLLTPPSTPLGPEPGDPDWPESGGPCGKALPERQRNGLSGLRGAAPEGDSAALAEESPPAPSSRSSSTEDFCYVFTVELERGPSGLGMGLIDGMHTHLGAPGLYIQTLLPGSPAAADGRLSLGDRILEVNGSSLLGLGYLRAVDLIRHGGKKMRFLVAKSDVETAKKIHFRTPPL
The following applies: PDZ FLJ 10324, PDZ Domain 1. The procedure, abridged: (§1)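 Same steps as the G-zero format, apart from a peptide concentration of 10 uM in place of 20 uM in step 2. Amino-terminally biotinylated PL peptides bind GST-PDZ fusions, and retained peptide is quantified by 450 nm absorbance.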

Experiment [2] deals with T2, PDZ protein (GST-PDZ fusion) (Homo sapiens, UniProt Q02410).
T2 construct: made in house; host or cells: E. coli (DH5alpha, BL21 or JM109)
T2 sequence (Q02410 1-837): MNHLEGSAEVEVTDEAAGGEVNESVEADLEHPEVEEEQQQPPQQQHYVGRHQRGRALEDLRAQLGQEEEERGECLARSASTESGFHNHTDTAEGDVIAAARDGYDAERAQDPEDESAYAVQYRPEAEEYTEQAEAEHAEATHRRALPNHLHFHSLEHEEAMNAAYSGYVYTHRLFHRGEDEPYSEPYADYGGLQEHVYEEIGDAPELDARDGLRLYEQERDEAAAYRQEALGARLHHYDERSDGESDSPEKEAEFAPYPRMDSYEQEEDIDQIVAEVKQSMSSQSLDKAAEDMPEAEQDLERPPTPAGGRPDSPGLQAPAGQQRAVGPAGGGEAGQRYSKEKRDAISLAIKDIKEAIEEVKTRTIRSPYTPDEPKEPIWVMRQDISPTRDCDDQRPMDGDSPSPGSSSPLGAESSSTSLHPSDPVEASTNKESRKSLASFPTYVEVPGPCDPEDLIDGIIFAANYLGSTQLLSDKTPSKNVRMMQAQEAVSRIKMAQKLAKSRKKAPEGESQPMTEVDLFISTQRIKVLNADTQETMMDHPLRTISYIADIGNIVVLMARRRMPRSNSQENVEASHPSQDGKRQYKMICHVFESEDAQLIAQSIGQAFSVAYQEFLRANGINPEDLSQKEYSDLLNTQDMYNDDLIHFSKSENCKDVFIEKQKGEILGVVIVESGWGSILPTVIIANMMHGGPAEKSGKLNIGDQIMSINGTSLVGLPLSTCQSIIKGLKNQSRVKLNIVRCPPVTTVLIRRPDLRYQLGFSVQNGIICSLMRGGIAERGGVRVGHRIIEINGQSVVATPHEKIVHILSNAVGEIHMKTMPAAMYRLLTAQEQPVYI
The gist of the method:
as §1

Experiment [3] concerns the target T3, PDZ protein (GST-PDZ fusion) (Homo sapiens, UniProt O75970).
T3 construct: made in house; host or cells: E. coli (DH5alpha, BL21 or JM109)
The procedure, abridged:
as §1

T3 sequence (O75970 whole entry, the tested form may be a part): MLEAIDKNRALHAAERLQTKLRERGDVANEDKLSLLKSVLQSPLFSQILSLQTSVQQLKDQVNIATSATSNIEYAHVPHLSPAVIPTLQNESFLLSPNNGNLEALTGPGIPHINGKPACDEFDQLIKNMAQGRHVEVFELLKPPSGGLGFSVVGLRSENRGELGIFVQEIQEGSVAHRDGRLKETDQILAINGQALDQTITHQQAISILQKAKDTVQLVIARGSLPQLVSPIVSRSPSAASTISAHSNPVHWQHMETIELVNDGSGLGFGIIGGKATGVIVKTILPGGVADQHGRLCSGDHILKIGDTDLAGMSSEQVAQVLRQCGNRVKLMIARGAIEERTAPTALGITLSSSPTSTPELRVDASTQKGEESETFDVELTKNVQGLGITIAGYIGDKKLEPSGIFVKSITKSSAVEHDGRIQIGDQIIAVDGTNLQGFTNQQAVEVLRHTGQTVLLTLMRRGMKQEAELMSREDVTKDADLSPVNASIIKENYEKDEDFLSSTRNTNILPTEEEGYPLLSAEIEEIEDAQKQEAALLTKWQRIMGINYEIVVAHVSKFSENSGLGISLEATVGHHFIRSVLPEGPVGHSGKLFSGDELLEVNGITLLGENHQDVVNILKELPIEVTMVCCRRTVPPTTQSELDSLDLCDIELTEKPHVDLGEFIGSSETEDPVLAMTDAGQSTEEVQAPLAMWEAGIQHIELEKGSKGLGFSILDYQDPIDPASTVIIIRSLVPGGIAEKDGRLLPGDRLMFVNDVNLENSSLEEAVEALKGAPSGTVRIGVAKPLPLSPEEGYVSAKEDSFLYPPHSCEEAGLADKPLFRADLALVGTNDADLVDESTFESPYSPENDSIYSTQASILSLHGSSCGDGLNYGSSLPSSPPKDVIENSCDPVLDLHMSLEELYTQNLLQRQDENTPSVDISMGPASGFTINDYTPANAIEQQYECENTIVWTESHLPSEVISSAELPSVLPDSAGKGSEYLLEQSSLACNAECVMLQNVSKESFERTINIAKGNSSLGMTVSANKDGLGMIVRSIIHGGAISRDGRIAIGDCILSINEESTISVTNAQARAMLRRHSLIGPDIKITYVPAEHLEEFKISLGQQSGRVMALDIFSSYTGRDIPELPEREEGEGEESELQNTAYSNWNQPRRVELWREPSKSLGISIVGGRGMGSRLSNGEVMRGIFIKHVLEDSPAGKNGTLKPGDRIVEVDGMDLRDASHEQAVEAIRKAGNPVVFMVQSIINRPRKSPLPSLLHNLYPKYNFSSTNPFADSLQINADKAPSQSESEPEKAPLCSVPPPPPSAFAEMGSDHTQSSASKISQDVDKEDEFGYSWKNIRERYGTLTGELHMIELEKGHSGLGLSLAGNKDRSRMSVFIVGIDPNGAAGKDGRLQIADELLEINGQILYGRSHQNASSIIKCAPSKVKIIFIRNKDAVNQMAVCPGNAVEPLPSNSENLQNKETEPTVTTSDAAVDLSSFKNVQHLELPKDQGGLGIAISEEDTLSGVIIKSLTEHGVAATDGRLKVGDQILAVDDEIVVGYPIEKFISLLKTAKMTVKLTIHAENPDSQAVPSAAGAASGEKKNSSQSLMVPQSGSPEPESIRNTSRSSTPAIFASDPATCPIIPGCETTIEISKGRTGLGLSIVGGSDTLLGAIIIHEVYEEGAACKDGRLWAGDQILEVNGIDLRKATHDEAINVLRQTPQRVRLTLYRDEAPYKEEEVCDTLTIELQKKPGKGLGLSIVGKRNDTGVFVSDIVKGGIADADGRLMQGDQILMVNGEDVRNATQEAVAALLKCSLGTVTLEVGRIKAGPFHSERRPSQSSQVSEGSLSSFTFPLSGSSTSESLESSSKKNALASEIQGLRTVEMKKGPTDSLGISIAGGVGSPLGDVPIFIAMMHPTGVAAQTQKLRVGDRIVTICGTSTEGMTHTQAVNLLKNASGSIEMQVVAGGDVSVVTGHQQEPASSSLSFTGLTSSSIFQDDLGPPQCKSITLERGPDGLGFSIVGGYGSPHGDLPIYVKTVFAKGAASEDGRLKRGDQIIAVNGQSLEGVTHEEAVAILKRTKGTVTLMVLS

With `CC[C@H](C)[C@H](NC(=O)[C@H](CCC(N)=O)NC(=O)[C@@H](NC(=O)[C@H](Cc1c[nH]cn1)NC(=O)[C@H](CCC(N)=O)NC(=O)[C@H](CC(=O)O)NC(=O)[C@H](CCC(=O)O)NC(=O)[C@H](CC(=O)O)NC(=O)[C@H](Cc1ccccc1)NC(=O)[C@@H]1CCCN1C(=O)[C@H](CCC(=O)O)NC(=O)[C@H](CC(N)=O)NC(=O)[C@H](CCC(=O)O)NC(=O)[C@@H]1CCCN1C(=O)[C@H](CC(=O)O)NC(=O)[C@H](CO)NC(=O)[C@H](CC(=O)O)NC(=O)CCCC[C@@H]1SC[C@@H]2NC(=O)N[C@@H]21)[C@@H](C)O)C(=O)N[C@H](C(=O)N[C@@H](CCCCN)C(=O)N[C@H](C(=O)O)C(C)C)[C@@H](C)O` [PTEN], the Classification in experiment [1] is listed as 1 (A450 nm 0-1); in experiment [2] (PDZ Mint 1, PDZ Domain 1, 2), 1 (A450 nm 0-1); in experiment [2] (PDZ Mint 1, PDZ Domain 2), 1 (A450 nm 0-1); in experiment [3] (PDZ MUPP-1, PDZ Domain 13), 5 (A450 nm of 4 more than 2× repeated).

Turning to `CSCC[C@H](NC(=O)[C@H](C)NC(=O)[C@H](CCCNC(=N)N)NC(=O)CNC(=O)[C@@H](NC(=O)[C@H](Cc1c[nH]c2ccccc12)NC(=O)[C@H](CCCNC(=N)N)NC(=O)CNC(=O)CCCC[C@@H]1SC[C@@H]2NC(=O)N[C@@H]21)[C@@H](C)O)C(=O)N[C@@H](CO)C(=O)N[C@@H](C)C(=O)N[C@@H](Cc1c[nH]c2ccccc12)C(=O)N[C@@H](CCCCN)C(=O)N1CCC[C@H]1C(=O)N[C@H](C(=O)N[C@@H](CCCNC(=N)N)C(=O)N[C@@H](CCCNC(=N)N)C(=O)N[C@@H](CCC(=O)O)C(=O)N[C@H](C(=O)N[C@@H](CCC(=O)O)C(=O)N[C@H](C(=O)O)C(C)C)[C@@H](C)O)[C@@H](C)O` [HPV E6 #35 (modified)] (Biotin-GRWTGRAMSAWKPTRRETEV-OH; C-terminus assumed), the Classification in experiment [1] was 1 (A450 nm 0-1); in experiment [2] (PDZ Mint 1, PDZ Domain 1, 2), 1 (A450 nm 0-1); in experiment [2] (PDZ Mint 1, PDZ Domain 2), 2 (A450 nm 1-2); in experiment [3] (PDZ MUPP-1, PDZ Domain 5), 2 (A450 nm 1-2); in experiment [3] (PDZ MUPP-1, PDZ Domain 10), 4 (A450 nm 3-4); in experiment [3] (PDZ MUPP-1, PDZ Domain 13), 5 (A450 nm of 4 more than 2× repeated).

On to “A2AA_HUMAN (modified) (Biotin-HDFRRAFKKILARGDRKRIV; not fully specified)”, for which the Classification in experiment [1] is given as 1 (A450 nm 0-1); in experiment [2] (PDZ Mint 1, PDZ Domain 1) it was 1 (A450 nm 0-1); in experiment [3] (PDZ MUPP-1, PDZ Domain 6) it was 2 (A450 nm 1-2); in experiment [3] (PDZ MUPP-1, PDZ Domain 8), 1 (A450 nm 0-1); in experiment [3] (PDZ MUPP-1, PDZ Domain 13) it was 1 (A450 nm 0-1).

In the case of `CC(C)C[C@H](NC(=O)[C@H](C)NC(=O)[C@H](CO)NC(=O)CNC(=O)[C@@H](NC(=O)CCCC[C@@H]1SC[C@@H]2NC(=O)N[C@@H]21)[C@@H](C)O)C(=O)N[C@@H](CCC(N)=O)C(=O)N[C@@H](C)C(=O)N[C@@H](Cc1c[nH]c2ccccc12)C(=O)N[C@@H](CCCNC(=N)N)C(=O)N[C@@H](Cc1c[nH]cn1)C(=O)N[C@H](C(=O)N[C@@H](CO)C(=O)N[C@@H](CCCNC(=N)N)C(=O)N[C@@H](CCC(N)=O)C(=O)N[C@@H](C)C(=O)N[C@H](C(=O)N[C@@H](CCC(=O)O)C(=O)N[C@@H](CO)C(=O)N[C@H](C(=O)N[C@H](C(=O)O)C(C)C)[C@@H](C)O)[C@@H](C)O)[C@@H](C)O` [HPV E6 #66 (modified)] (Biotin-TGSALQAWRHTSRQATESTV-OH; C-terminus assumed), the Classification in experiment [1] was 1 (A450 nm 0-1); in experiment [2] (PDZ Mint 1, PDZ Domain 1, 2), 1 (A450 nm 0-1); in experiment [2] (PDZ Mint 1, PDZ Domain 2) it was 1 (A450 nm 0-1); in experiment [3] (PDZ MUPP-1, PDZ Domain 10) it was 1 (A450 nm 0-1); in experiment [3] (PDZ MUPP-1, PDZ Domain 13), 3 (A450 nm 2-3).

For the compound “KTMPAAMFRLLTGQETPLYI (Biotin-KTMPAAMFRLLTGQETPLYI) [MINT-2]”, the Classification in experiment [1] was 4 (A450 nm 3-4); in experiment [2] (PDZ Mint 1, PDZ Domain 1) it was 2 (A450 nm 1-2); in experiment [2] (PDZ Mint 1, PDZ Domain 1, 2) it was 5 (A450 nm of 4 more than 2× repeated); in experiment [2] (PDZ Mint 1, PDZ Domain 2), 1 (A450 nm 0-1); in experiment [3] (PDZ MUPP-1, PDZ Domain 2), 1 (A450 nm 0-1); in experiment [3] (PDZ MUPP-1, PDZ Domain 3), 1 (A450 nm 0-1). The Classification in experiment [3] (PDZ MUPP-1, PDZ Domain 7) is listed as 1 (A450 nm 0-1); in experiment [3] (PDZ MUPP-1, PDZ Domain 9) it was 1 (A450 nm 0-1); in experiment [3] (PDZ MUPP-1, PDZ Domain 11), 5 (A450 nm of 4 more than 2× repeated).

As to `CC[C@H](C)[C@H](NC(=O)[C@H](Cc1ccc(O)cc1)NC(=O)[C@H](CC(C)C)NC(=O)[C@H](CCC(N)=O)NC(=O)[C@H](Cc1c[nH]cn1)NC(=O)[C@H](CO)NC(=O)[C@H](C)NC(=O)[C@H](CC(C)C)NC(=O)[C@@H](NC(=O)[C@H](CC(=O)O)NC(=O)[C@H](CCSC)NC(=O)[C@H](Cc1ccccc1)NC(=O)[C@@H]1CCCN1C(=O)[C@H](CCCNC(=N)N)NC(=O)[C@@H](NC(=O)[C@H](CC(C)C)NC(=O)[C@H](CC(N)=O)NC(=O)[C@H](CC(=O)O)NC(=O)[C@@H](NC(=O)[C@H](CO)NC(=O)CCCC[C@@H]1SC[C@@H]2NC(=O)N[C@@H]21)[C@@H](C)O)C(C)C)[C@@H](C)O)C(=O)O` [presenilin-2] (Biotin-STDNLVRPFMDTLASHQLYI-OH; C-terminus assumed), the Classification in experiment [1] is listed as 5 (A450 nm of 4 more than 2× repeated); in experiment [2] (PDZ Mint 1, PDZ Domain 1, 2), 3 (A450 nm 2-3); in experiment [3] (PDZ MUPP-1, PDZ Domain 3) it was 3 (A450 nm 2-3); in experiment [3] (PDZ MUPP-1, PDZ Domain 7), 2 (A450 nm 1-2); in experiment [3] (PDZ MUPP-1, PDZ Domain 9) it was 3 (A450 nm 2-3).
